Measurements taken from patent US10550165B2, “Peptide for inducing regeneration of tissue and use thereof” (STEMRIM INC., priority 2011, dated 2020).

What was measured:
[1] = system: PDGFRα-positive, CD44-positive cells in the peripheral blood; assay: Mobilization of PDGFRα-positive, CD44-positive cells into peripheral blood (FACS); format: in vivo, mouse; details: 10 μg via the caudal vein, C57Bl6 mice, blood after 12 hours; PBS group 1.33%
Description: 10 μg of synthetic peptide (amino acids of positions 1 to 44) was dissolved in 200 μl of PBS and administered to C57B16 mice (female, 8 weeks old) via the caudal vein using a syringe with 30-gauge needle. An equal volume of PBS was administered as a negative control. After 12 hours, peripheral blood was collected from the left ventricle of the heart under systemic anesthesia with isoflurane. After adding 3 ml of PBS (Nacalai tesque; Cat. 14249-95), 3 ml of Ficoll-Paque Plus (GE Healthcare; Cat. 17-1440-02) was overlaid onto the blood. The blood was centrifuged in a centrifuge at 400 G and 25° C. for 45 minutes. The upper serum layer was discarded, and only the cells seen as a white band in the intermediate layer were collected. Then, 45 ml of PBS was added to the collected cells, and centrifuged in a centrifuge at 800 G and 25° C. for 20 minutes. After the supernatant was discarded, 10 ml of PBS was added and centrifuged at 1500 rpm and 25° C. for 10 minutes. The supernatant was discarded and 1 ml of hemolysis buffer (HLB; Immuno-Biological Laboratories) was added to the cells. After pipetting, the cells were allowed to stand for 5 minutes. Then, 10 ml of PBS was added to the cells and centrifuged at 1500 rpm and 25° C. for 10 minutes. […] The cells prepared as described above were analyzed using FACSCant™ II.

[2] = system: rat cerebral infarction model; assay: Middle cerebral artery thread occlusion model (cerebral infarction); format: in vivo; details: 50 μg caudal vein
Text: Eight- to ten-week-old male Wister rats were used. Rats were anesthetized by isoflurane inhalation while warming on a keep-warm mat with a body temperature monitor. After confirming that the anesthetic effect was sufficient, cervical hair was removed to expose the skin. The surgical site was sterilized with alcohol. Along the cervical median line, the skin was incised with a scalpel. After the right external carotid artery was ligated and the right common carotid artery was pressurized to temporarily block the blood flow, an occlusion thread made of #4 monofilament nylon with siliconized tip was inserted into the right external carotid artery toward the right internal carotid artery. While releasing the pressure on the common carotid artery, the occlusion thread was advanced along with the blood stream from the internal carotid artery up to the bifurcation to the middle cerebral artery so that the blood flow was blocked. Furthermore, the thread around the right common carotid artery was ligated to completely block the blood flow for 50 minutes. After removing the occlusion thread and loosening the ligature at the common carotid artery, the skin was sutured to complete the surgery.
50 μg of synthetic peptide (1-44) was administered at the caudal vein. The first administration was carried out 6 hours after the production of cerebral infarction. Then, the peptide was administered five times at 24-hour intervals (five days in total).
After 14 days of the final drug administration, the rats were given sufficiently deep anesthesia, and placed in a container filled with carbon dioxide. The complete arrest of heartbeat and breathing was confirmed. Brains were excised and immediately fixed by immersion in buffered 10% formalin. After paraffin embedding, thin sections were prepared and stained with hematoxylin-eosin. Four sections were prepared from each brain at 1.92 mm anterior to bregma (1.92), 0.60 mm anterior to bregma (0.60), 1.56 mm posterior to bregma (−1.56), and 3.24 mm posterior to bregma (−3.24), and the areas were compared.

[3] = system: skin flap made on the back of a rat; assay: Skin flap (skin damage) model on the back of rats; format: in vivo; details: for area of wound section (necrosed section) in the skin flap: FIG. 25
Description: Experimental animals used were SD rats (male, eight weeks old). After sufficiently deep anesthesia by isoflurane inhalation, a rectangular skin incision of 3 cm width×7 cm length was made on the back. The cephalic side was left uncut, and the skin was thoroughly detached from the subcutaneous tissues. The three incised sides were sutured to the surrounding skin using #4 silk suture, and protected with Tegaderm (3M) to prevent bacterial infection.
The full-length mouse HMGB1 (100 μg/administration/day) produced in HEK293 and chemically synthesized HMGB1 peptide (amino acids 1 to 44; 50 μg/administration/day) were diluted to 200 μl with phosphate buffer and administered to rats via the caudal vein. The first administration was performed 6 hours after the surgery, and then the agents were administered every 24 hours a total of five times. Phosphate-buffered physiological saline was administered as a negative control. Tegaderm was removed after one week, and the wound region was observed weekly to measure the areas of necrosis and ulceration.
Experimental animals used were 15 SD rats (male, eight weeks old) per group. After sufficient anesthesia by isoflurane inhalation, a rectangular skin incision of 3 cm width×7 cm length was made on the back. The cephalic side was left uncut, and the skin was thoroughly detached from the subcutaneous tissues. The incised three sides were sutured to the surrounding skin using #4 silk suture, and protected with Tegaderm (3M) to prevent bacterial infection.
Chemically synthesized HMGB1 peptide (amino acids 1-44; 50 μg/administration/day) or HMGB1 peptide (amino acids 17-25; 50 μg/administration/day) was diluted to 200 μl with phosphate buffer and administered to the rats with experimental wound. The first administration was performed 6 hours after the surgery, and then the agents were administered every 24 hours a total of five times. Phosphate-buffered physiological saline was administered as a negative control. Tegaderm was removed after one week, and the wound was observed two weeks after the wound production. Uncured areas (ulceration and necrosis) were measured.

[4] = system: skin flap made on the back of a rat; assay: Skin flap (skin damage) model on the back of rats; format: in vivo; details: six weeks after skin flap production; 50 μg/administration/day, five administrations, FIG. 26

synthetic peptide (1-44): chemically synthesized HMGB1 peptide, amino acids 1 to 44, mouse HMGB1 sequence (MGKGDPKKPRGKMSSYAFFVQTCREEHKKKHPDASVNFSEFSKK; UniProt P63158 1-44, looked up, fragment)
proportion of PDGFRα-positive, CD44-positive cells in the peripheral blood, average [1]: 4.33%
infarction area (% ratio to normal brain area in the right brain), four sections ([2]; five administrations, versus negative control (PBS), FIG. 17): significantly reduced as compared to the negative control group
animals showing expansion of the infarction to the cortex ([2]; N=10, first 6 h after infarction, five times at 24-hour intervals, 14 days after final administration, negative control 8 of 11): only one mouse showed expansion of the infarction to the cortex
animals in which the infarction was limited in the basal nucleus ([2]; N=10, five administrations, 14 days after final administration): 9
area of wound section (necrosed section) in the skin flap ([3]; after four weeks and later, versus the other two groups): a further shrinking effect was observed
area of wound section (necrosed section) in the skin flap ([3]; one to three weeks after the skin flap was made, versus negative control): effect of shrinking the wound section was confirmed
rats in which skin necrosis developed ([3]; one week after surgery, caudal vein, five administrations, full-length 100 μg, peptide 50 μg/administration/day, negative control four of five): one of five rats
rats with severe skin contracture ([3]; seven weeks after surgery, same regimen, negative control four of five, FIG. 24): two of five rats
ratio of the uncured area relative to the area of the whole skin flap, average ([3]; two weeks after skin flap production, 50 μg/administration/day, five administrations, 15 SD rats per group, FIG. 26): 14.1%
ratio of the uncured area relative to the area of the whole skin flap, average [4]: 4.1%
